The test system of one data set is HSV-1. The data set is described as follows: Release of HSV-1 from infected Vero cells, plaque assay. To be noted: for EC50: Human alphaherpesvirus 1; for Duration of inhibition of HSV-1 release after a single application: data not shown. The class given is cell-based, Herpes simplex virus-1 (Kos strain). The procedure: (§1) We infected Vero cells with HSV-1 and HSV-2 for two hours at a multiplicity of infection (MOI in pfu\cell) of 0.1 to assay the antiviral activity of tenatoprazole. Following infection, cells were treated with different concentrations of tenatoprazole. After 24 or 48 h the media fractions were collected and released virus titers were determined by standard plaque assays (30). Tenatoprazole caused a 3-log drop of HSV-1 and 4-5 log drop of HSV-2 in released infectious virus from Vero cells at 24 hours after infection in a dose dependent manner (Table 1, shown in FIG. 5, columns 2 and 3) with calculated EC50's ranging from 48-80 μM. Total virus titer was also determined to differentiate between virus released into the media and infectious particles present in cell lysate. […] The concentrations of tenatoprazole that blocked virus release were nontoxic to Vero cells as determined by a 96® AQueous One Solution cell proliferation assay reagent (Table 1, shown in FIG. 5, column 7). Taken together, tenatoprazole inhibited levels of both released and infectious virus particles without affecting cell viability at effective concentrations.
(§2) Herpesvirus infection of Vero cells. Vero cells (0.8×10^6 cells/well of a 6-well plate) were infected with HSV-1 or HSV-2 at a MOI of 0.1 pfu/cell in DMEM with 1% serum for two hours in the C02 incubator at 37° C. In one experiment looking at the effect of tenatoprazole on HSV-2 release from cells 24 and 48 h a MOI of 3 pfu/cell was used. The cell supernatants were aspirated and replaced with 1 ml (24 h) or 2 ml (48 h and 72 h) of DMEM with 1% serum with DMSO or different concentrations of drug (tenatoprazole, ilaprazole, or analogs) dissolved in DMSO. After 24 or 48 h incubation, the cell supernatant was collected and frozen at −80° C. Virus titer in the cell media fraction was determined by standard plaque assays using 10-fold serial dilutions of cell supernatants of Vero cells and incubated for 48 h after which cells were fixed and stained to count the plaques (22). For determination of total virus (extracellular+cytoplasmic), virus infected cells were incubated for 24 h with and without drug presence, then the plate of cells were subjected to 3 cycles of freeze/thawing (−80° C./37° C.) 30 min each prior to collecting the supernatant after centrifugation for measurement of total virus titer. Virus titer was measured by standard plaque assay as above.
(§3) Drug potency and cell toxicity. EC50 calculations were determined by using AAT Bioquest's EC50 calculator. Cell toxicity at different concentrations of drugs as indicated was determine using the Cell Proliferation Reagent WST-1 (Roche Diagnostics) or cellular 96® Aqueous One Reagent viability reagent according to manufacturer's instructions. For 293T cells, the concentration of DMSO was 0.2% or less and assays were carried out with DMEM with 10% serum. Cell toxicity experiments were repeated twice.

Data set [1] deals with HSV-2. Nature of the data set: Release of HSV-2 from infected Vero cells, plaque assay. The class given is cell-based, Herpes simplex virus-2(A/B-G). Conditions: for EC50: Human alphaherpesvirus 2, MOI 0.1, 24 h, read-out: EC50, inhibition of HSV-2 release; for Total infectious virus (released plus inside cells), HSV-2: 24 h, freeze/thaw lysate. The procedure: as §1
To examine the effects of the compounds on the release of HSV-2 from Vero cells, we infected the cells with virus two hours prior to treatment with media containing different concentrations of compound. We incubated the cells for 24 or 48 hours and then collected the cell media fractions.
as §2, §3

A further data set concerns Vero cells. Nature of the data set: Vero cell viability/toxicity (96 AQueous One Solution / WST-1). The class given is cell-based. The procedure:
as §3
(In general: Tetrazolium dyes change colour on reduction, which living cells bring about.)

Data set [2] concerns HSV-2. The data set is described as follows: Transmission electron microscopy of HSV-2 infected Vero cells, location of virus particles. To be noted: 24 h, 80 cells. It is filed as cell-based, Herpes simplex virus-2(A/B-G). The procedure: Cellular location of tenatoprazole inhibition. We next imaged herpesvirus infected-Vero cells using transmission electron microscopy to determine the site of inhibition of release of virus and whether it was similar to observations of HIV-1 release from 293T cells. Vero cells grown on glass cover slips were infected with HSV-2 at MOI of 0.1 pfu/cell for 2 h and then treated for 24 h with 105 μM tenatoprazole or vehicle control. In the no drug control, virus particles were in both the nucleus and cytoplasm near the cell surface (FIG. 2A). In the tenatoprazole-treated cells the cytosol of all of the intact cells was largely devoid of virus particles (FIG. 2B). Instead, we observed large pockets of granular material accumulated in the nucleus and immature virus particles inside the nucleus and lining the inside of the nuclear membrane (inset, B).
We next carried out a transmission electron microscopic examination of cells infected with HSV-2 at a MOI 0.1 in the presence and absence of 18 μM ilaprazole to determine if this drug causes the accumulation of virus particles in the nucleus of cells similar to tenatoprazole. Without drug, we observe particles in the cytoplasm and in the nucleus (FIGS. 4A & B), in the presence of drug little or no viral particles are found in the cytoplasm (FIGS. 4C & D). In both heavily infected cells (FIGS. 4A & C) and mildly infected cells (FIGS. 4B & D), treatment lead to particles being detected in the nucleus and arrayed along the nuclear membrane but lacking in the cytosol. […] Similar results were obtained with HSV-1 infected cells (FIG. 4E-H). Particles are seen in both the cytoplasm and nucleus in the absence of drug and just in the nucleus in the presence of drug. […] The lower total infectious virus detected in Table 3 (FIG. 7) is consistent with blockage of the virus passaging out of the nucleus into the cytoplasm where membranes are exchanged and virus becomes infectious.
Transmission electron Microscopy. Vero cells on glass cover slips were infected with HSV-2 at a MOI of 0.1 for two hours. Then 105 μM of tenatoprazole or 18 μM Ilaprazole was added and cells incubated for 24 hours. Tissue samples were fixed in 0.1 M sodium cacodylate buffer pH 7.3 containing 2% paraformaldehyde and 2.5% glutaraldehyde and post-fixed with 2% osmium tetroxide in unbuffered aqueous solution. The samples were rinsed with distilled water, en bloc stained with 3% uranyl acetate, rinsed with distilled water, dehydrated in ascending grades of ethanol, transitioned with propylene oxide, embedded in the resin mixture of Embed 812 kit and cured in a 60° C. oven. Samples were sectioned on a Leica Ultracut UC6 ultramicrotome. 1 μm thick sections were collected and stained with Toluidine Blue O and 70 nm sections were collected on 200 mesh copper grids; thin sections were stained with uranyl acetate and Reynolds lead citrate. Transmission electron microscopy (TEM) was performed on a FEI Tecnai Spirit G2.

Setting [3] is: Vero cells, MOI 0.1, 24 h, read-out: EC50, inhibition of HSV-1 release.
The mark [4] stands for this setting: Vero cells, 24 hours after infection, dose dependent.

Like-named read-outs stand apart in the source and are kept apart here.

Consider `COc1ccnc(C[S+]([O-])c2nc3ccc(-n4cccc4)cc3[nH]2)c1C` (stereo not drawn) [Ilaprazole, 2-[(4-methoxy-3-methylpyridin-2-yl)methylsulfinyl]-6-pyrrol-1-yl-1H-benzimidazole], for which the EC50 in the data set with HSV-1 (Vero cells, 72 h after a single application (Table 3A columns 2 & 4, HSV-1), read-out: 72 h EC50, inhibition of virus release) lay in the range of 0.8 to 1.2 µM. In addition, in the data set on HSV-1 (setting [3]), the EC50 was 3 to 9 µM. Besides, the “Total infectious virus (released plus inside cells), HSV-1” value in the data set on HSV-1 (Vero cells, freeze/thaw lysate) is reported as “significant drop in total virus”. Besides, in the data set with HSV-1, the “Duration of inhibition of HSV-1 release after a single application” value was “Significant inhibition was still observed at 4 and 5 days”. For the same compound, in the data set on HSV-2 [1] (Vero cells), the EC50 is 3 to 9 µM and the “Total infectious virus (released plus inside cells), HSV-2” value is given as “significant drop in total virus”. Also, the “Anti-HSV-2 activity (release from Vero cells), in words” value with HSV-2 [1] (Table 2, 24 h) was “potent antiviral activity”. Besides, the “Cell toxicity to Vero cells” value with Vero cells is reported as “did not observe cell toxicity”. In the data set with HSV-2 [2] (HSV-2, 18 μM ilaprazole), the “Average number of virus particles in the nucleus” value was determined as 31 particles, the “Range of number of virus particles in the nucleus” value was 9-56 particles and the “Virus particles in the cytoplasm” value was found to be 0 particles.

For the compound `COc1ccc2[nH]c([S+]([O-])Cc3ncc(C)c(OC)c3C)nc2n1` (stereo not drawn) [Tenatoprazole], the EC50 in the data set on HSV-1 (setting [3]) was in the range of 48 to 80 µM. The “Drop in released infectious HSV-1” value in the data set with HSV-1 (setting [4]) worked out at 3 log. The “Duration of inhibition of HSV-1 release after a single application” value with HSV-1 was “began to fall off after 48 h”. Moreover, in the data set with HSV-2 [1] (Vero cells), the EC50 was 48 to 80 µM and the “Total infectious virus (released plus inside cells), HSV-2” value was “reduced by tenatoprazole, but not as strongly as virus released into the media”. Moreover, the “Drop in released infectious HSV-2” value in the data set on HSV-2 [1] (setting [4]) is on record as 4-5 log. The “Duration of inhibition of HSV-2 release after a single application” value in the data set with HSV-2 [1] (data not shown) was “began to fall off after 48 h”. Further, the “Cell toxicity to Vero cells” value with Vero cells (at concentrations that block virus release, 24 h) was “nontoxic”. For the same compound, in the data set with HSV-2 [2] (HSV-2, 105 μM tenatoprazole), the “Average number of virus particles in the nucleus” value stood at 31 particles and the “Virus particles in the cytoplasm” value is “did not detect virus particles”.

What is called EC50 is the concentration giving half of the maximal effect.
